The source of these data is patent US11572590B2, “Methods for evaluating tumor cell spheroids using 3D microfluidic cell culture device” (Dana-Farber Cancer Institute, Inc., priority 2017, dated 2023).

Common to all, as to experiment: SelectScreen Kinase Profiling, single point inhibition and IC50 for off-target kinases
What all share (type): biochemical

In experiment [1] the target is off-target kinases (Homo sapiens, UniProt P00533, DEL746-750). Particulars: EGFR (ErbB1) d746-750; mutant y; LanthaScreen Binding.
off-target kinases (Homo sapiens, UniProt P00533, DEL746-750), sequence (P00533 with tags, fused parts or gaps DEL746-750): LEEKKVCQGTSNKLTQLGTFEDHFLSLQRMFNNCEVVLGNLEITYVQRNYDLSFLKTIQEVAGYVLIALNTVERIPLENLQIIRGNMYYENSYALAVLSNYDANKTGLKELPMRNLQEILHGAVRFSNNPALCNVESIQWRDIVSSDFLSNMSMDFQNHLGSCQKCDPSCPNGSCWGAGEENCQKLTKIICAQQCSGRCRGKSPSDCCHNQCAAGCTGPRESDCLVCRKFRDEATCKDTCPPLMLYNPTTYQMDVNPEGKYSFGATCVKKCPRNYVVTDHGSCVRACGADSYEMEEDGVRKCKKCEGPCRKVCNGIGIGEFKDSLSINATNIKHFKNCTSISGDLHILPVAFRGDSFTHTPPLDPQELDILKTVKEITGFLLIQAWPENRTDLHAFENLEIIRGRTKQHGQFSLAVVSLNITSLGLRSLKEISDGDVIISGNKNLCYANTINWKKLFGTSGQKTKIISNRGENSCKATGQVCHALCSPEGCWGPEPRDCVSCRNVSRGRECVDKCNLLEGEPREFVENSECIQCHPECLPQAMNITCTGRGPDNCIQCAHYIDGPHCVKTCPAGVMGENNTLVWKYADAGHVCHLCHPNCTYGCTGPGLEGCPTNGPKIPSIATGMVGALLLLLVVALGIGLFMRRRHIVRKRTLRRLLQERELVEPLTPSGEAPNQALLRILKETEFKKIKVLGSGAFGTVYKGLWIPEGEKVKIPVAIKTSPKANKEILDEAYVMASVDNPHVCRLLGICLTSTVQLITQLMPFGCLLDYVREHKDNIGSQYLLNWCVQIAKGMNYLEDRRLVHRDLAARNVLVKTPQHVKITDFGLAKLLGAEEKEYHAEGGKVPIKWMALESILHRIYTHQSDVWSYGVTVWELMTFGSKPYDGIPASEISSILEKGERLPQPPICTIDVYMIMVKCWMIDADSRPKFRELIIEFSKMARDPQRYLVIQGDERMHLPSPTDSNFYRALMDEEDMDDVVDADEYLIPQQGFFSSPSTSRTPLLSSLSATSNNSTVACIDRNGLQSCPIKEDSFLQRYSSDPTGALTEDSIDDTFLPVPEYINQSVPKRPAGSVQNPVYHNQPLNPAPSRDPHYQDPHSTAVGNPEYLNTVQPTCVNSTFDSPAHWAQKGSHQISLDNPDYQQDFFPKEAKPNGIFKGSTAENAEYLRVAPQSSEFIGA
The target in experiment [2] is off-target kinases (Homo sapiens, UniProt P22612). Particulars: PRKACG (PRKAC gamma), LanthaScreen Binding.
off-target kinases (Homo sapiens, UniProt P22612), sequence (P22612 whole entry): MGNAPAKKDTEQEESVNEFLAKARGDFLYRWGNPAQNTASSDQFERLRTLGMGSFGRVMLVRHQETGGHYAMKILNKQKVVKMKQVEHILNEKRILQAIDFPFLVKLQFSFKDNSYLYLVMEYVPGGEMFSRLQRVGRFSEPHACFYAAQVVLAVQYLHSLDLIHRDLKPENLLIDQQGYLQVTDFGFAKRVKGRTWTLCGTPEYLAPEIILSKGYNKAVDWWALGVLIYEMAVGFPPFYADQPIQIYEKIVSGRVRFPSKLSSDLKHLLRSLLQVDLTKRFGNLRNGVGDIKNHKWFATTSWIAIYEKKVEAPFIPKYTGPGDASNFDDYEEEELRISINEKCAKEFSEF
In experiment [3] the target is off-target kinases (Homo sapiens, UniProt Q9P289). Particulars: MST4, ZLYTE, ATP Km app.
off-target kinases (Homo sapiens, UniProt Q9P289), sequence (Q9P289 whole entry): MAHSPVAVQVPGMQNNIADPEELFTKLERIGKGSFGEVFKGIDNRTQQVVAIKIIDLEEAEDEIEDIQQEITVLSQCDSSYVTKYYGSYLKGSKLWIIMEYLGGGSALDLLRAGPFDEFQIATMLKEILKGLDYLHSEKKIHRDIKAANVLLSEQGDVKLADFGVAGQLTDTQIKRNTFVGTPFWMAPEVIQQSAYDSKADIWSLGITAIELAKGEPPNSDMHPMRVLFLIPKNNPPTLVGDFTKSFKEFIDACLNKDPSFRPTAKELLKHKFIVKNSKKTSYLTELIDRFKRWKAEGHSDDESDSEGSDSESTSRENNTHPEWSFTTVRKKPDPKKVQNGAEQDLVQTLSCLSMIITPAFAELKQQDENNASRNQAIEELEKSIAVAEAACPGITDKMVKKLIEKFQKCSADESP
Experiment [4] addresses off-target kinases (Homo sapiens, UniProt Q13554). Particulars: CAMK2B (CaMKII beta), ZLYTE, ATP Km app.
The target in experiment [5] is off-target kinases (Homo sapiens, UniProt Q15208). Particulars: STK38 (NDR), LanthaScreen Binding.
off-target kinases (Homo sapiens, UniProt Q15208), sequence (Q15208 whole entry): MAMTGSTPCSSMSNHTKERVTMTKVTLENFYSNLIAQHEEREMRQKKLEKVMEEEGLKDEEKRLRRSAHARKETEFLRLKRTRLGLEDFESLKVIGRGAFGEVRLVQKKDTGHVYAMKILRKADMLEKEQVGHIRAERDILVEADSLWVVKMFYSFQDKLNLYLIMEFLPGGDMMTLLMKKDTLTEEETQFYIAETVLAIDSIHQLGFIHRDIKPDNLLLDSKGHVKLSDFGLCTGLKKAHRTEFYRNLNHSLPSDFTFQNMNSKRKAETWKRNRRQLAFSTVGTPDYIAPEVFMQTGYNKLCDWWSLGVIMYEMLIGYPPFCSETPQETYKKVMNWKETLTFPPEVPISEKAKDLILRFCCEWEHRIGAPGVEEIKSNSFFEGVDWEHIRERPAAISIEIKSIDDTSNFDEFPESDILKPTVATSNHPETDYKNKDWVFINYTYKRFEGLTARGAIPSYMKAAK
In experiment [6] the target is T1, off-target kinases (Homo sapiens, UniProt P36896).
T1 sequence (P36896 24-505): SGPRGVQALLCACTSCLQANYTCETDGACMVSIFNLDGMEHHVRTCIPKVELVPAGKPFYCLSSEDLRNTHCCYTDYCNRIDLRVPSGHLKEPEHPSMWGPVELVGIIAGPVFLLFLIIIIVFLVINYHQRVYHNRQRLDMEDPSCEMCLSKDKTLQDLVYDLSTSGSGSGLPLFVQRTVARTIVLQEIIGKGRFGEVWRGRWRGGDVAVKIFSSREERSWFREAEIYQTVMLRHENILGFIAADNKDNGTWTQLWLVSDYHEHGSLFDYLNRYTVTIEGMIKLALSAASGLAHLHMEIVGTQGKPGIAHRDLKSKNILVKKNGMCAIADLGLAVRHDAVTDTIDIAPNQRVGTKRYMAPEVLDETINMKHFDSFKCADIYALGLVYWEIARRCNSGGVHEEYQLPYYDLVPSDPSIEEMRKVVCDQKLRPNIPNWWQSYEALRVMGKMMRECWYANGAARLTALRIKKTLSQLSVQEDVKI
Particulars: ACVR1B (ALK4); Cmpd1 1000 μM; ATP Km app; ZLYTE.

In experiment [7] the target is T2, off-target kinases (Homo sapiens, UniProt Q13237).
T2 sequence (Q13237 1-762): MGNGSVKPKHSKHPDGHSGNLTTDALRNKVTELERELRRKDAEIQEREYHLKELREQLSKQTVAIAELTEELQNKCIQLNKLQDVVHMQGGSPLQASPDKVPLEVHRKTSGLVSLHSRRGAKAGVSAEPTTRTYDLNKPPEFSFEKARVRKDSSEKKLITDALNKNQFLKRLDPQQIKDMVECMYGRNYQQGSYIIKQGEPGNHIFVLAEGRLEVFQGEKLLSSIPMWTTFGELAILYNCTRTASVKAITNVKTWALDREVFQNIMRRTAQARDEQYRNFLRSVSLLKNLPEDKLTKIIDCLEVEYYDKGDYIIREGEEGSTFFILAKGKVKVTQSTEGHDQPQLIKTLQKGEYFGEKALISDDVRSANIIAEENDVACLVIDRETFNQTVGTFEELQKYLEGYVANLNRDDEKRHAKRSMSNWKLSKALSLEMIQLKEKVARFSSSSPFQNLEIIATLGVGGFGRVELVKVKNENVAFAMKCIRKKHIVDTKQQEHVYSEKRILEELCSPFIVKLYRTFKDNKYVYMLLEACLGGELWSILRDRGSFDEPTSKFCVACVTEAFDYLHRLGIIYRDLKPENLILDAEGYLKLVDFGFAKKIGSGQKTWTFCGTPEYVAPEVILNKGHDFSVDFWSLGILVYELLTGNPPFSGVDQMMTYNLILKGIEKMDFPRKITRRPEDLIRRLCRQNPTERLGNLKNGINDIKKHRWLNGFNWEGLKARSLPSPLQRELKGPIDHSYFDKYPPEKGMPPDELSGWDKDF
Particulars: PRKG2 (PKG2), ZLYTE, ATP Km app.

Like-named read-outs stand apart in the source and are kept apart here.

off-target kinases (Homo sapiens, UniProt Q13554), sequence (Q13554 whole entry): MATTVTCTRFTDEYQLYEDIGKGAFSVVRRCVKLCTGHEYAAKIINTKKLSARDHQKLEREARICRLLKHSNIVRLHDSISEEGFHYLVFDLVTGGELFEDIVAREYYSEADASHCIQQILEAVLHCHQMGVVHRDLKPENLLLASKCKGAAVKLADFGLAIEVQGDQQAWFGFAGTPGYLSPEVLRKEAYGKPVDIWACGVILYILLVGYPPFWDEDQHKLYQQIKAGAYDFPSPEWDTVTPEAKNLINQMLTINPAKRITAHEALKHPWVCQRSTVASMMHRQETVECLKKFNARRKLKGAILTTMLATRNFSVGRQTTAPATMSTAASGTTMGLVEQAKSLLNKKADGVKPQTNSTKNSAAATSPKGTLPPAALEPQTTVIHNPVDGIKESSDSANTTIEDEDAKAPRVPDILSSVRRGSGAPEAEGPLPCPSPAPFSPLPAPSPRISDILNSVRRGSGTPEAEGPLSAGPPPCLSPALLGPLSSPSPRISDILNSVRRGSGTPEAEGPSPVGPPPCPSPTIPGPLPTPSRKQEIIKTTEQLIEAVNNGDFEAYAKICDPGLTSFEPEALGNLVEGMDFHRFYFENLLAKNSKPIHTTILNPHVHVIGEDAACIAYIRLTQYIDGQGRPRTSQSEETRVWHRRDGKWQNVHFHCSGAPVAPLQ

On to `N#Cc1cc(-c2ncnc(Nc3ccc(N4CCN(C5COC5)CC4)cc3)n2)ccc1OC1CCOCC1` [Compound 1, 5-(4-((4-(4-(oxetan-3-yl)piperazin-1-yl)phenyl)amino)-1,3,5-triazin-2-yl)-2-((tetrahydro-2H-pyran-4-yl)oxy)benzonitrile], for which the inhibition was found to be 14% on off-target kinases [1]; 28% on off-target kinases [2] (read-out: % Inhibition 1); 19% at off-target kinases [2] (read-out: % Inhibition 2); 24% at off-target kinases [2] (read-out: % Inhibition Avg); 2% on off-target kinases [3] (read-out: % Inhibition 1); 3% at off-target kinases [3] (read-out: % Inhibition 2). Besides, the inhibition was 2% on off-target kinases [3] (read-out: % Inhibition Avg); 11% on off-target kinases [4] (read-out: % Inhibition 1); 8% on off-target kinases [4] (read-out: % Inhibition 2); 10% at off-target kinases [4] (read-out: % Inhibition Avg); 51% at off-target kinases [5] (read-out: % Inhibition 1); 49% on off-target kinases [5] (read-out: % Inhibition 2). The inhibition at off-target kinases [5] (read-out: % Inhibition Avg) was 50%; at off-target kinases [7] (read-out: % Inhibition 1) it was 16%; at off-target kinases [7] (read-out: % Inhibition 2) it was 13%; on off-target kinases [7] (read-out: % Inhibition Avg), 14%. Moreover, at off-target kinases [6], the “% Inhibition 1” value is recorded as −10%. Besides, the “% Inhibition 2” value on off-target kinases [6] was −4%. Further, the “% Inhibition Avg” value on off-target kinases [6] is listed as −7%.
